Where a SMILES comes first, the peptide text is derived from it. Where no end group is shown, it is not given here. [ ]: non-standard residue; d: D form. NMeY = CN[C@@H](Cc1ccc(O)cc1)C(=O)O; Tle = CC(C)(C)[C@H](N)C(=O)O
Assays:
[1] = system: PC-12 cells; experiment: Cell viability of PC-12 neural cells under glutamate stimulation (excitotoxic cell death model, propidium iodide/Hoechst staining); format: cell-based, rat; conditions: for Normalized cell viability (%): 10 nM compound, 30 min pretreatment, then glutamate stimulation 24 h, normalized to positive control MK-801; for EC50: dose-response relationship in promoting the viability of PC-12 neurons, glutamate stimulation
Experimental: 1.1. Culture of PC-12 Cell Line and Establishment of Excitotoxic Cell Death Model
PC-12 cells (a […] cell line derived from rat adrenal medulla) were cultured in DMEM/F12 complete medium until eaching 80-90% confluence. The cells were then digested, collected, resuspended, and seeded at density of 5×10^4 cells per well in a 24-well plate precoated with coverslips. Following 26 hours of cell culture, excitotoxic cell death was induced by glutamate stimulation. For model establishment: an appropriate amount of glutamate was weighed and dissolved in DMEM/F12 medium to prepare a stock solution. After filtration, the stock solution was diluted with culture medium and administered to the cells via medium replacement. The cells were further incubated for 24 hours after administration.
1.2 Administration of Small Molecules
Prior to glutamate modeling, cells incubated as described in the previous step were pretreated with 10 nM of the polypeptide compound according to the present application for 30 minutes, followed by glutamate stimulation.
1.3. Propidium Iodide Staining
Cells treated with the polypeptide compound according to the present application were stained with propidium iodide to assess cell death. After discarding the culture medium, the cells were washed with PBS, and propidium iodide/Hoechst was added. After incubating for 30 minutes, the cells were removed and the staining solution was discarded. After washing with PBS, the cells were fixed and mounted, and subjected to image acquisition under a fluorescence microscope. The number of propidium iodide-positive cells and Hoechst-positive cells in the acquired images was counted to calculate the cell viability. MK-801 was used as the positive control compound. The normalized cell viability was calculated using the following formula: (cell viability of the compound group −cell viability of the glutamate group)/(cell viability of the positive control group −cell viability of the glutamate group)×100%.
Based on the above dose-response studies of the compound, the inhibitory effects of different small-molecule compounds at the same dose (10 nM) against excitotoxic death in PC-12 neurons cells were further compared.
Based on this, the dose-response relationship of the neuroprotective effect of the polypeptide compounds according to the present application on PC-12 neural cells was analyzed.

[2] = Pharmacokinetic characteristics in rats after intravenous administration (plasma, LC-MS/MS); format: in vivo; conditions: SD rats, intravenous (tail vein), 10 mg/kg; for MRT inf: rat
Experimental: Experimental Example 2: Pharmacokinetic Characteristics of Various Compounds in Rats
Intravenous administration: Three SD rats per group were administered the compounds of Example 1, Example 2, Example 3, Example 6, Example 7, Example 17, and Example 19 via the tail vein, respectively, at a dose of 10 mg/kg. all SD rats were allowed free access to food and water after administration. Plasma was collected 3 min, 10 min, 30 min, 1 h, 2 h, 6 h, 10 h, and 24 h after administration, with 3 rats per time point.
Sample processing: Whole blood was anticoagulated with EDTA-K2. Within 30 minutes of collection, the blood was centrifuged at 3000 g for 10 minutes at 2-8 °C. After centrifugation, the separated plasma was transferred to new 1.5 mL centrifuge tubes and stored at −80 °C.
Analytical method: The concentrations of each compounds in rat plasma were determined by LC-MS/MS using Shimadzu LC30AD and AB Sciex QTRAP 6500+instruments. The relevant pharmacokinetic parameters after administration were calculated.

| Molecule | Normalized cell viability (%) [1] | EC50 [1] | T1/2 [2] | Vss [2] | MRT inf [2] |
| --- | --- | --- | --- | --- | --- |
| CN[C@@H](Cc1ccc(O)cc1)C(=O)NCC(=O)N[C@@H](CCCNC(=N)N)C(=O)N[C@@H](CCCCN)C(=O)N[C@@H](CCCCN)C(=O)N[C@@H](CCCNC(=N)N)C(=O)N[C@@H](CCCNC(=N)N)C(=O)N[C@@H](CCC(N)=O)C(=O)N[C@@H](CCCNC(=N)N)C(=O)N[C@@H](CCCNC(=N)N)C(=O)N[C@@H](CCCNC(=N)N)C(=O)N[C@@H](CCCCN)C(=O)N[C@@H](CCCCN)C(=O)N[C@@H](CC(N)=O)C(=O)N[C@@H](CCCNC(=N)N)C(=O)N[C@@H](CC(N)=O)C(=O)N[C@@H](CCCCN)C(=O)N[C@@H](CC(C)C)C(=O)N[C@@H](CCCNC(=N)N)C(=O)N[C@@H](CCCNC(=N)N)C(=O)N[C@@H](CCC(N)=O)C(=O)N[C@@H](Cc1c[nH]cn1)C(=O)N[C@@H](CO)C(=O)N[C@@H](Cc1ccc(O)cc1)C(=O)O [Example 2] (H-[NMeY]GRKKRRQRRRKKNRNKLRRQHSY-OH) | 65.56% | 12.6 nM | 1.73 h | 3.94 L/kg | 1.84 h |
| CN[C@@H](Cc1ccc(O)cc1)C(=O)NCC(=O)N[C@@H](CCCNC(=N)N)C(=O)N[C@@H](CCCCN)C(=O)N[C@@H](CCCCN)C(=O)N[C@@H](CCCNC(=N)N)C(=O)N[C@@H](CCCNC(=N)N)C(=O)N[C@@H](CCC(=O)O)C(=O)N[C@@H](CCCNC(=N)N)C(=O)N[C@@H](CCCNC(=N)N)C(=O)N[C@@H](CCCNC(=N)N)C(=O)N[C@@H](CCCCN)C(=O)N[C@@H](CCCCN)C(=O)N[C@@H](CC(=O)O)C(=O)N[C@@H](CCCNC(=N)N)C(=O)N[C@@H](CC(=O)O)C(=O)N[C@@H](CCCCN)C(=O)N[C@@H](CC(C)C)C(=O)N[C@@H](CCCNC(=N)N)C(=O)N[C@@H](CCCNC(=N)N)C(=O)N[C@@H](CCC(=O)O)C(=O)N[C@@H](Cc1c[nH]cn1)C(=O)N[C@@H](CO)C(=O)N[C@@H](Cc1ccc(O)cc1)C(N)=O [Example 19] (H-[NMeY]GRKKRRERRRKKDRDKLRREHSY-NH2) | 87.71% | – | 1.16 h | 9.11 L/kg | 1.73 h |
| CC(=O)N[C@@H](Cc1ccc(O)cc1)C(=O)NCC(=O)N[C@@H](CCCNC(=N)N)C(=O)N[C@@H](CCCCN)C(=O)N[C@@H](CCCCN)C(=O)N[C@@H](CCCNC(=N)N)C(=O)N[C@@H](CCCNC(=N)N)C(=O)N[C@@H](CCC(=O)O)C(=O)N[C@@H](CCCNC(=N)N)C(=O)N[C@@H](CCCNC(=N)N)C(=O)N[C@@H](CCCNC(=N)N)C(=O)N[C@@H](CCCCN)C(=O)N[C@@H](CCCCN)C(=O)N[C@@H](CC(=O)O)C(=O)N[C@@H](CCCNC(=N)N)C(=O)N[C@@H](CC(=O)O)C(=O)N[C@@H](CCCCN)C(=O)N[C@H](CC(C)C)C(=O)N[C@@H](CCCNC(=N)N)C(=O)N[C@@H](CCCNC(=N)N)C(=O)N[C@@H](CCC(=O)O)C(=O)N[C@@H](Cc1c[nH]cn1)C(=O)N[C@@H](CO)C(=O)N[C@@H](Cc1ccc(O)cc1)C(N)=O [Example 20, Ac-YGRKKRRERRRKKDRDK(D-L)RREHSY-NH2] (Ac-YGRKKRRERRRKKDRDK[dL]RREHSY-NH2) | 87.36% | – | – | – | – |
| CC(=O)N[C@@H](Cc1ccc(O)cc1)C(=O)NCC(=O)N[C@@H](CCCNC(=N)N)C(=O)N[C@@H](CCCCN)C(=O)N[C@@H](CCCCN)C(=O)N[C@@H](CCCNC(=N)N)C(=O)N[C@@H](CCCNC(=N)N)C(=O)N[C@@H](CCC(=O)O)C(=O)N[C@@H](CCCNC(=N)N)C(=O)N[C@@H](CCCNC(=N)N)C(=O)N[C@@H](CCCNC(=N)N)C(=O)N[C@@H](CCCCN)C(=O)N[C@@H](CCCCN)C(=O)N[C@@H](CC(=O)O)C(=O)N[C@@H](CCCNC(=N)N)C(=O)N[C@@H](CC(=O)O)C(=O)N[C@@H](CCCCN)C(=O)N[C@H](C(=O)N[C@@H](CCCNC(=N)N)C(=O)N[C@@H](CCCNC(=N)N)C(=O)N[C@@H](CCC(=O)O)C(=O)N[C@@H](Cc1c[nH]cn1)C(=O)N[C@@H](CO)C(=O)N[C@@H](Cc1ccc(O)cc1)C(N)=O)C(C)(C)C [Example 25, Ac-YGRKKRRERRRKKDRDKTleRREHSY-NH2] (Ac-YGRKKRRERRRKKDRDK[Tle]RREHSY-NH2) | 86.80% | – | – | – | – |
| CC(=O)N[C@@H](Cc1ccc(O)cc1)C(=O)NCC(=O)N[C@@H](CCCNC(=N)N)C(=O)N[C@@H](CCCCN)C(=O)N[C@H](CCCCN)C(=O)N[C@H](CCCNC(=N)N)C(=O)N[C@@H](CCCNC(=N)N)C(=O)N[C@@H](CCC(=O)O)C(=O)N[C@@H](CCCNC(=N)N)C(=O)N[C@H](CCCNC(=N)N)C(=O)N[C@@H](CCCNC(=N)N)C(=O)N[C@@H](CCCCN)C(=O)N[C@@H](CCCCN)C(=O)N[C@@H](CC(=O)O)C(=O)N[C@@H](CCCNC(=N)N)C(=O)N[C@@H](CC(=O)O)C(=O)N[C@@H](CCCCN)C(=O)N[C@H](CC(C)C)C(=O)N[C@H](CCCNC(=N)N)C(=O)N[C@@H](CCCNC(=N)N)C(=O)N[C@@H](CCC(=O)O)C(=O)N[C@@H](Cc1c[nH]cn1)C(=O)N[C@@H](CO)C(=O)N[C@@H](Cc1ccc(O)cc1)C(N)=O [Example 26, Ac-YGRK(D-K)(D-R)RER(D-R)RKKDRDK(D-L)(D-R)REHSY-NH2] (Ac-YGRK[dK][dR]RER[dR]RKKDRDK[dL][dR]REHSY-NH2) | 82.39% | – | – | – | – |
| Ac-YGRKKRRERRRKKDRDKLRREHSY-NH2 [Example 18] | 87.20% | – | – | – | – |
| Ac-YGRKKRRERRRKKDRDKVRREHSY-NH2 [Example 23] | 74.16% | – | – | – | – |
| Ac-YGRKKRRQRRRKKNRNKLRRQHSY [Example 4] | 85.00% | – | – | – | – |
| Ac-YGRKKRRQRRRKKNRNKLRRQHSY-NH2 [Example 7] | – | 8.72 nM | 1.51 h | 3.58 L/kg | 1.93 h |
| YGRKKRRQRRRKKNRDKLRREHSY [Example 16] | 85.15% | 18.8 nM | – | – | – |
| YGRKKRRQRRRKKNRNKIRRQHSY-NH2 [Example 12] | 58.59% | – | – | – | – |
| YGRKKRRQRRRKKNRNKLRRQHSY [Example 1, reference compound] | 41.00% | 23.6 nM | 0.76 h | 1.29 L/kg | 0.87 h |
| YGRKKRRQRRRKKNRNKLRRQHSY-NH2 [Example 6] | – | 13.5 nM | 1.23 h | 2.53 L/kg | 1.65 h |

Source: US20260347409A1, “CHEMICALLY MODIFIED POLYPEPTIDE” (SUZHOU GLENKOL PHARMA TECHNOLOGY CO., LTD., priority 2023, published 2026)
